{"source": "ChEMBL document CHEMBL5303573", "about": "“Mapping human microbiome drug metabolism by gut bacteria and their genes” (Nature, 2019)", "key": {"[1]": {"assay": "The drug is tested on Bacteroides fragilis strain: HMW610 for biotransformation. The drug concentrations were measured before and after a 12-h incubation by liquid-chromatography-coupled mass spectrometry (LC–MS)", "conditions": "2 µM"}, "[2]": {"assay": "The drug is tested on Providencia alcalifaciens strain: DSM30120 for biotransformation. The drug concentrations were measured before and after a 12-h incubation by liquid-chromatography-coupled mass spectrometry (LC–MS)", "conditions": "2 µM"}, "[3]": {"assay": "The drug is tested on Clostridium spiroforme strain: DSM1552 for biotransformation. The drug concentrations were measured before and after a 12-h incubation by liquid-chromatography-coupled mass spectrometry (LC–MS)", "conditions": "thomasclavelia spiroformis, 2 µM"}, "[4]": {"assay": "The drug is tested on Clostridium hathewayi strain: DSM13479 for biotransformation. The drug concentrations were measured before and after a 12-h incubation by liquid-chromatography-coupled mass spectrometry (LC–MS)", "conditions": "hungatella hathewayi, 2 µM"}, "[5]": {"assay": "The drug is tested on Bacteroides fragilis strain: T(B)9 for biotransformation. The drug concentrations were measured before and after a 12-h incubation by liquid-chromatography-coupled mass spectrometry (LC–MS)", "conditions": "2 µM"}, "[6]": {"conditions": "bacteroides stercoris, 12 h, 2 µM"}, "[7]": {"assay": "The drug is tested on Bacteroides ovatus strain: ATCC8483 for biotransformation. The drug concentrations were measured before and after a 12-h incubation by liquid-chromatography-coupled mass spectrometry (LC–MS)", "conditions": "2 µM"}, "[8]": {"conditions": "clostridioides difficile, 12 h, 2 µM", "description": "The drug is tested on Clostridium difficile strain: 120 for biotransformation. The drug concentrations were measured before and after a 12-h incubation by liquid-chromatography-coupled mass spectrometry (LC–MS)"}, "[9]": {"assay": "The drug is tested on Salmonella typhimurium strain: LT2 for biotransformation. The drug concentrations were measured before and after a 12-h incubation by liquid-chromatography-coupled mass spectrometry (LC–MS)", "conditions": "salmonella enterica subsp. enterica, 2 µM"}, "[10]": {"assay": "The drug is tested on Eubacterium biforme strain: DSM3989 for biotransformation. The drug concentrations were measured before and after a 12-h incubation by liquid-chromatography-coupled mass spectrometry (LC–MS)", "conditions": "holdemanella biformis, 2 µM"}, "[11]": {"conditions": "roseburia intestinalis, 12 h, 2 µM", "description": "The drug is tested on Roseburia intestinalis strain: L1-82 for biotransformation. The drug concentrations were measured before and after a 12-h incubation by liquid-chromatography-coupled mass spectrometry (LC–MS)"}, "[12]": {"assay": "The drug is tested on Proteus penneri strain: ATCC35198 for biotransformation. The drug concentrations were measured before and after a 12-h incubation by liquid-chromatography-coupled mass spectrometry (LC–MS)", "conditions": "2 µM"}, "[13]": {"assay": "The drug is tested on Eggerthella lenta strain: ATCC25559 for biotransformation. The drug concentrations were measured before and after a 12-h incubation by liquid-chromatography-coupled mass spectrometry (LC–MS)", "conditions": "2 µM"}, "[14]": {"conditions": "victivallis vadensis, 12 h, 2 µM"}, "[15]": {"assay": "The drug is tested on Providencia rettgeri strain: DSM1131 for biotransformation. The drug concentrations were measured before and after a 12-h incubation by liquid-chromatography-coupled mass spectrometry (LC–MS)", "type": "ADME", "set-up": "dose 2 uM, timepoint 0 vs 12 hours", "conditions": "2 µM"}, "[16]": {"target": "T1, Acyltransferase 3 domain-containing protein (Phocaeicola dorei, UniProt B6W2J3)", "T1 sequence (B6W2J3 whole entry)": "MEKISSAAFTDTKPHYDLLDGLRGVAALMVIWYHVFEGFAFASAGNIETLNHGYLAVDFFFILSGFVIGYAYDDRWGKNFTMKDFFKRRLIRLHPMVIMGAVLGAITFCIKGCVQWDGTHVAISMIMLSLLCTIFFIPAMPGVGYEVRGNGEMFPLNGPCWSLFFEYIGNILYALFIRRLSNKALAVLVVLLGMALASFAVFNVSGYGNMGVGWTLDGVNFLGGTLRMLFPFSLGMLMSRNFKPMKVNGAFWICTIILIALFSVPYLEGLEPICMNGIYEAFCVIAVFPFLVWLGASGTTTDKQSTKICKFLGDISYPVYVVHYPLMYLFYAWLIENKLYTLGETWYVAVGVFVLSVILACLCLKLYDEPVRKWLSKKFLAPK", "assay": "(§1) The drug is tested on Bacteroides dorei strain: DSM17855 for biotransformation. The drug concentrations were measured before and after a 12-h incubation by liquid-chromatography-coupled mass spectrometry (LC–MS)", "type": "ADME", "set-up": "dose 2 uM", "conditions": "2 µM"}, "[17]": {"target": "T2, SGNH hydrolase-type esterase domain-containing protein (Phocaeicola dorei, UniProt B6W293)", "T2 sequence (B6W293 whole entry)": "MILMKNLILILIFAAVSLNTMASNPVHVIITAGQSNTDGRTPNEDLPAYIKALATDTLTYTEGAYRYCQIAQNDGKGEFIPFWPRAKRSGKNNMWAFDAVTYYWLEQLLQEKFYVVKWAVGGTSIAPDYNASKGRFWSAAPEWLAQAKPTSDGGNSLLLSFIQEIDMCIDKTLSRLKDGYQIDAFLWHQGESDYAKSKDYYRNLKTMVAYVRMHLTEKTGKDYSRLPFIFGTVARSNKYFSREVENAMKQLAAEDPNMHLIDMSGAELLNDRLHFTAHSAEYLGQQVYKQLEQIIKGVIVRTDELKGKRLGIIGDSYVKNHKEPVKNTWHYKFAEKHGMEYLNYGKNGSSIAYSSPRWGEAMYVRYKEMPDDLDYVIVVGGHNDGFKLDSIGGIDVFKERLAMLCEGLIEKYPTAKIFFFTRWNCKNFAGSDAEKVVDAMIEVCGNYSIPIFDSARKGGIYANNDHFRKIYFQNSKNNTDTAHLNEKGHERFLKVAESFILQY", "assay": "as §1", "type": "ADME", "set-up": "dose 2 uM", "conditions": "2 µM"}, "[18]": {"target": "T3, SGNH hydrolase-type esterase domain-containing protein (Phocaeicola dorei, UniProt B6VTE7)", "T3 sequence (B6VTE7 whole entry)": "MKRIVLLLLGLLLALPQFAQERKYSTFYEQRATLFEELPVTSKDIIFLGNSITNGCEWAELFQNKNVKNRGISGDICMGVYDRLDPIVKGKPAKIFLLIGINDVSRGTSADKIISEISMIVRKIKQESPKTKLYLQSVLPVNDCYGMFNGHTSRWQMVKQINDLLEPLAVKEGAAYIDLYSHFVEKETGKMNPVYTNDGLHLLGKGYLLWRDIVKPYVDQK", "assay": "as §1", "type": "ADME", "set-up": "dose 2 uM", "conditions": "2 µM"}, "[19]": {"target": "T4, Steroid 5-alpha reductase C-terminal domain-containing protein (Phocaeicola dorei, UniProt B6W0N3)", "T4 sequence (B6W0N3 whole entry)": "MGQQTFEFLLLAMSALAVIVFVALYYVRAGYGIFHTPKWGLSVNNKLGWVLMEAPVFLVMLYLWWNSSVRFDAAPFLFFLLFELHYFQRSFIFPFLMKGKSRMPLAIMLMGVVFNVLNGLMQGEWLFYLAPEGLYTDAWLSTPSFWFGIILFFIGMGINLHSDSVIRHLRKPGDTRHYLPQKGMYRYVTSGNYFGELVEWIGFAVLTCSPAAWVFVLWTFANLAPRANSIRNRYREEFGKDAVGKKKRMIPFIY", "assay": "as §1", "type": "ADME", "set-up": "dose 2 uM", "conditions": "2 µM"}, "[20]": {"target": "T5, Nitroreductase domain-containing protein (Phocaeicola dorei, UniProt B6VU18)", "T5 sequence (B6VU18 whole entry)": "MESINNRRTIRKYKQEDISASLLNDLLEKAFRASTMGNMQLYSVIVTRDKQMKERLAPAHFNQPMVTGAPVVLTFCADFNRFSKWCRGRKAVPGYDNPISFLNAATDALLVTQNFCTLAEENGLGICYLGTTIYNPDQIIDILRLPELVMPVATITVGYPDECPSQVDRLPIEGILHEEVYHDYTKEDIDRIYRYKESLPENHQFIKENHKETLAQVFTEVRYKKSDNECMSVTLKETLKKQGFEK", "assay": "as §1", "type": "ADME", "set-up": "dose 2 uM", "conditions": "2 µM"}}}
{"smiles": "Cc1nc(-c2ccc(OCC(C)C)c(C#N)c2)sc1C(=O)O", "note": "[FEBUXOSTAT]", "values": [{"measurement": "Bacterial Biotransformation", "setting": "[1]", "value": "Compound NOT metabolized"}, {"measurement": "Bacterial Biotransformation", "setting": "[2]", "value": "Compound NOT metabolized"}, {"measurement": "Bacterial Biotransformation", "setting": "[3]", "value": "Compound NOT metabolized"}, {"measurement": "Bacterial Biotransformation", "setting": "[4]", "value": "Compound NOT metabolized"}, {"measurement": "Bacterial Biotransformation", "setting": "[5]", "value": "Compound metabolized"}, {"measurement": "Bacterial Biotransformation", "setting": "[6]", "value": "Compound NOT metabolized"}, {"measurement": "Bacterial Biotransformation", "setting": "[7]", "value": "Compound NOT metabolized"}, {"measurement": "Bacterial Biotransformation", "setting": "[8]", "value": "Compound NOT metabolized"}, {"measurement": "Bacterial Biotransformation", "setting": "[9]", "value": "Compound NOT metabolized"}, {"measurement": "Bacterial Biotransformation", "setting": "[10]", "value": "Compound NOT metabolized"}]}
{"smiles": "N#Cc1ccc2[nH]cc(CCCCN3CCN(c4ccc5oc(C(N)=O)cc5c4)CC3)c2c1", "note": "[VILAZODONE]", "values": [{"measurement": "Bacterial Biotransformation", "setting": "[1]", "value": "Compound metabolized"}, {"measurement": "Bacterial Biotransformation", "setting": "[2]", "value": "Compound NOT metabolized"}, {"measurement": "Bacterial Biotransformation", "setting": "[3]", "value": "Compound metabolized"}, {"measurement": "Bacterial Biotransformation", "setting": "[4]", "value": "Compound NOT metabolized"}, {"measurement": "Bacterial Biotransformation", "setting": "[5]", "value": "Compound metabolized"}, {"measurement": "Bacterial Biotransformation", "setting": "[6]", "value": "Compound metabolized"}, {"measurement": "Bacterial Biotransformation", "setting": "[7]", "value": "Compound metabolized"}, {"measurement": "Bacterial Biotransformation", "setting": "[11]", "value": "Compound NOT metabolized"}, {"measurement": "Bacterial Biotransformation", "setting": "[12]", "value": "Compound NOT metabolized"}, {"measurement": "Bacterial Biotransformation", "setting": "[9]", "value": "Compound NOT metabolized"}, {"measurement": "Bacterial Biotransformation", "setting": "[10]", "value": "Compound NOT metabolized"}]}
{"smiles": "Nc1nc2ccc(OC(F)(F)F)cc2s1", "note": "[RILUZOLE]", "values": [{"measurement": "Bacterial Biotransformation", "setting": "[1]", "value": "Compound metabolized"}, {"measurement": "Bacterial Biotransformation", "setting": "[2]", "value": "Compound NOT metabolized"}, {"measurement": "Bacterial Biotransformation", "setting": "[3]", "value": "Compound NOT metabolized"}, {"measurement": "Bacterial Biotransformation", "setting": "[4]", "value": "Compound NOT metabolized"}, {"measurement": "Bacterial Biotransformation", "setting": "[5]", "value": "Compound metabolized"}, {"measurement": "Bacterial Biotransformation", "setting": "[13]", "value": "Compound NOT metabolized"}, {"measurement": "Bacterial Biotransformation", "setting": "[6]", "value": "Compound metabolized"}, {"measurement": "Bacterial Biotransformation", "setting": "[7]", "value": "Compound NOT metabolized"}, {"measurement": "Bacterial Biotransformation", "setting": "[11]", "value": "Compound NOT metabolized"}, {"measurement": "Bacterial Biotransformation", "setting": "[12]", "value": "Compound NOT metabolized"}, {"measurement": "Bacterial Biotransformation", "setting": "[8]", "value": "Compound NOT metabolized"}, {"measurement": "Bacterial Biotransformation", "setting": "[9]", "value": "Compound NOT metabolized"}, {"measurement": "Bacterial Biotransformation", "setting": "[10]", "value": "Compound NOT metabolized"}, {"measurement": "Bacterial Biotransformation", "setting": "[14]", "value": "Compound NOT metabolized"}]}
{"smiles": "COc1ccc(CCN(C)CCCC(C#N)(c2ccc(OC)c(OC)c2)C(C)C)cc1OC", "note": "(centres undefined)", "values": [{"measurement": "Bacterial Biotransformation", "setting": "[1]", "value": "Compound NOT metabolized"}, {"measurement": "Bacterial Biotransformation", "setting": "[2]", "value": "Compound NOT metabolized"}, {"measurement": "Bacterial Biotransformation", "setting": "[5]", "value": "Compound NOT metabolized"}, {"measurement": "Bacterial Biotransformation", "setting": "[6]", "value": "Compound metabolized"}, {"measurement": "Bacterial Biotransformation", "setting": "[7]", "value": "Compound metabolized"}, {"measurement": "Bacterial Biotransformation", "setting": "[15]", "value": "Compound NOT metabolized"}, {"measurement": "Bacterial Biotransformation", "setting": "[12]", "value": "Compound NOT metabolized"}, {"measurement": "Bacterial Biotransformation", "setting": "[9]", "value": "Compound metabolized"}, {"measurement": "Bacterial Biotransformation", "setting": "[10]", "value": "Compound NOT metabolized"}, {"measurement": "Bacterial Biotransformation", "setting": "[14]", "value": "Compound NOT metabolized"}]}
{"smiles": "C[C@]12CCC(=O)C=C1[C@@H]1C[C@@H]1[C@H]1[C@@H]3[C@@H]4C[C@@H]4[C@@]4(CCC(=O)O4)[C@@]3(C)CC[C@@H]12", "note": "[DROSPIRENONE]", "values": [{"measurement": "Bacterial Biotransformation", "setting": "[1]", "value": "Compound metabolized"}, {"measurement": "Bacterial Biotransformation", "setting": "[13]", "value": "Compound NOT metabolized"}, {"measurement": "Bacterial Biotransformation", "setting": "[16]", "value": "Compound NOT metabolized"}, {"measurement": "Bacterial Biotransformation", "setting": "[17]", "value": "Compound NOT metabolized"}, {"measurement": "Bacterial Biotransformation", "setting": "[18]", "value": "Compound NOT metabolized"}, {"measurement": "Bacterial Biotransformation", "setting": "[19]", "value": "Compound metabolized"}, {"measurement": "Bacterial Biotransformation", "setting": "[20]", "value": "Compound NOT metabolized"}, {"measurement": "Bacterial Biotransformation", "setting": "[6]", "value": "Compound NOT metabolized"}, {"measurement": "Bacterial Biotransformation", "setting": "[14]", "value": "Compound NOT metabolized"}]}
